According to article PMC4564614, “Purification and Characterization of Asparaginase from Phaseolus vulgaris Seeds” (Evidence-based Complementary and Alternative Medicine : eCAM, 2015):

Tested on: T1, L-asparaginase I (asparaginase I)
T1 construct: gene ASPG1
Conditions: 50 mM Tris-HCl pH 8.0, 50 mM KCl, 37 °C (standard assay); L-asparagine 2-20 mM

Km: 6.72 mM
SMILES: NC(=O)C[C@H](N)C(=O)O [L-asparagine]
